Results taken from patent US9353075B2, “Disubstituted beta-lactones as inhibitors of N-acylethanolamine acid amidase (NAAA)” (The Regents of the University of California, priority 2011, dated 2016).

Assays:
[1] = Chemical stability in PBS buffer pH 7.4; type: physicochemical; conditions: phosphate-buffered saline, 0.01M PBS pH 7.4, 37° C., read-out: Stability in PBS buffer, pH 7.4 t1/2
Protocol: Chemical stability of select compounds was evaluated under physiological pH conditions (0.01M Phosphate-Buffered Saline, pH 7.4) for up to 24 h. Stock solutions of each compound (10 mM) were prepared freshly in DMSO. Each compound was incubated at a final concentration of 10 μM (1% DMSO) in pre-heated buffer (0.01M Phosphate-Buffered Saline (PBS), pH 7.4 at 37° C.). The sample solutions were divided into aliquots in glass vials (pre-heated at 37° C.) for each time point. The samples were maintained at 37° C. in the UPLC/MS Autosampler during the study (no shaking). A reference solution of each compound (final concentration: 10 μM at 1% DMSO) in pre-heated CH3CN (37° C.) was prepared from the stock solutions (10 mM in DMSO). The reference solutions were maintained at 37° C. in the UPLC/MS Autosampler during the study (no shaking). An internal standard (100 nM) was added to the sample and reference solutions. For each time point, the samples were analyzed directly by LC/MS without any further sample preparation. The samples were analyzed (triplicate injection) by monitoring the MS trace by Multiple Reaction Monitoring (MRM). The compound concentration (expressed as %) was calculated by dividing the peak area at each time point by the peak area at t=0 min. The reference solution was analyzed at the beginning (t=0 min.), and at the end of the study (t=24 h). The apparent half-lives (t1/2) of the disappearance of compound were calculated by a one-phase decay equation using a non-linear regression of compound concentration versus time.
The analyses were performed on a Waters ACQUITY UPLC/MS TQD system consisting of a TQD (Triple Quadropole Detector) Mass Spectrometer equipped with an Electrospray Ionization interface and a Photodiode Array Detector. The analyses were run on an ACQUITY UPLC BEH C18 1.7 μm 2.1×50 mm column with a VanGuard BEH C18 1.7 μm pre-column at 40° C. The mobile phase was 0.1% HCOOH in H2O (A) and 0.1% HCOOH in CH3CN (B) using a linear gradient: 0-0.2 min.: 5% B, 0.2-2.2 min.: 5-95% B, 2.2-2.3 min.: 95-5% B, 2.3-3 min.: 5% B with flow rate at 0.5 mL/min. […]

[2] = target: r-NAAA (Rattus norvegicus (Rat), UniProt Q5KTC7); assay: r-NAAA inhibition, rat lung lysosomal NAAA preparation, UPLC/MS; type: biochemical
r-NAAA, sequence (Q5KTC7 34-362): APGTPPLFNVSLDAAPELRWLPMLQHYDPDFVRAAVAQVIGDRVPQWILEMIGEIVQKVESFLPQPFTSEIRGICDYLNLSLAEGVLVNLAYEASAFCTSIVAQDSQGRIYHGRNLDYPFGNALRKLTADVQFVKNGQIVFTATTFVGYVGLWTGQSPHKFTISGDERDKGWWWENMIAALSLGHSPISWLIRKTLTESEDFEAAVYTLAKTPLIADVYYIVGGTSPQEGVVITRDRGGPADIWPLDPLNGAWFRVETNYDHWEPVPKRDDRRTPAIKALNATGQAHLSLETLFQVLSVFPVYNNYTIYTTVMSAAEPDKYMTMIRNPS
Procedure, shortened: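 Enzyme was a lysosomal fraction from male Sprague-Dawley rat lung, preincubated with compound 30 min at 37 °C in NaH2PO4/citrate pH 4.5, 1% Triton-X, 3 mM DTT. Heptadecenoylethanolamide (50 μM) was hydrolysed 30 min at 37 °C. Heptadecenoic acid was quantified by UPLC/MS against vehicle, and IC50 fitted by non-linear regression.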

[3] = target: Acid Ceramidase (AC) (Rattus norvegicus (Rat), UniProt Q6P7S1); assay: Acid ceramidase inhibition, recombinant rat AC, LC-MS; type: biochemical; conditions: read-out: r-AC % inhib. @ 10 μM
Acid Ceramidase (AC), sequence (Q6P7S1 21-394): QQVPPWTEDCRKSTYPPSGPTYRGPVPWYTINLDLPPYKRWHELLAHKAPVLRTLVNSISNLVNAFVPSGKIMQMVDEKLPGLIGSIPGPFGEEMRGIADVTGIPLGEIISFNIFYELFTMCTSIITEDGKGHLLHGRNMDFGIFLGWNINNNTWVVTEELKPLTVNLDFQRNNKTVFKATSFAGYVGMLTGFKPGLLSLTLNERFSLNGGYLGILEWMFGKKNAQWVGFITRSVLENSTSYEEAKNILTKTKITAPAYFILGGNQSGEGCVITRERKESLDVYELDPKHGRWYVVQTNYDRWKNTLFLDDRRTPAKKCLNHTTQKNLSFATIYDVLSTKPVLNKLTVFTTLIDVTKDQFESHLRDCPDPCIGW
Protocol: The PCR (High Fidelity PCR Master, Roche) product was subcloned into a pEF6-[…] vector (Invitrogen) to construct a mammalian expression vector encoding […]-tagged rat AC. HEK293 cells were transfected with pEF6-rAC-[…] using Super-Fect reagent (Qiagen) and screened with G418 (0.3 mg/mL). Cells were suspended in 20 mM Tris HCl (pH 7.5) containing 0.32M sucrose, sonicated and centrifuged at 800×g for 15 minutes at 4° C. The supernatants were centrifuged again at 12,000×g for 30 minutes at 4° C. The pellets were suspended in phosphate-buffered saline (PBS) and subjected to 2 freeze-thaw cycles at -80° C. The suspensions were centrifuged at 105,000×g for 1 hour at 4° C. The supernatants containing recombinant AC were kept at -80° C. until use. Protein concentration was measured using the bicinchoninic acid (BCA) assay (Pierce). […] Reactions were stopped by addition of a mixture of chloroform/methanol (2:1, vol/vol) containing 1 nmol of heptadecanoic acid (HDA; NuChek Prep). […] HDA was eluted on an XDB Eclipse C18 column isocratically at 2.2 mL/min for 1 minute with a solvent mixture of 95% methanol and 5% water, both containing 0.25% acetic acid and 5 mM ammonium acetate. The column temperature was 50° C. Electrospray ionization (ESI) was in the negative mode, capillary voltage as 4 kV, and fragmentor voltage was 100 V. N2 was used as drying gas at a flow rate of 13 L/min and a temperature of 350° C. Nebulizer pressure was set at 60 psi. We monitored [M-H]- in the selected-ion monitoring (SIM) mode using HDA as internal standard. Calibration curves were generated using commercial lauric acid (Nu-Chek Prep; m/z=199).

C[C@@H]1OC(=O)[C@@H]1NC(=O)CCCCCCc1ccccc1 [corresponding amide analog, reference compound]
half-life at 10 μM [1]: 1.05 h
IC50 [2]: 540 nM
inhibition at 10 µM [3]: < 10%
